Legend:
[1] = tested on: mechanical hypersensitivity in spared nerve injury (SNI) mice; experiment: Von Frey mechanical thresholds in the spared nerve injury (SNI) model; type: in vivo, C57BL/6J mice; settings: day 7 after surgery, single oral dose: 20 mg/kg pure CBD or THC, 40 mg/kg THC+ extract, 1560 mg/kg THC- extract, CBD effect at 4 h, p = 0.022 vs vehicle
Protocol: SNI surgery was performed as previously described. In short, mice were anesthetized by intraperitoneal (i.p.) injections of 10 mg/kg Xylazine (AniMedica GmbH—a LIVISTO company, Senden, Germany) and 100 mg/kg Ketamine (AniMedica GmbH—a LIVISTO company, Senden, Germany). The skin on the lateral surface of the thigh was incised and the sciatic nerve exposed by separating the biceps femoris muscle through incision of the connective tissue without wounding the muscle. The common peroneal and tibial nerves were ligated with 4-0 Vicryl (Sh-1 plus; Raritan, NJ, USA) and a portion of 3 mm length was excised around the ligation site. Care was taken to avoid any mechanical damage to the sural nerve. After dissection, the muscle and skin were sutured using 4-0 Vicryl. Mice were left to recover at 37 °C until they regained consciousness.
The von Frey test was performed as previously described. In brief, mice were placed in a Plexiglas chamber on an elevated iron-mesh floor and allowed to habituate before testing. […] Withdrawal thresholds were calculated according to the up-and-down method. Von Frey results were analysed using repeated measure ANOVA.

[2] = design: method as in PMID 21796370; settings: CBD orally given to mice; cited from earlier work
[3] = design: method as in PMID 12648025, PMID 17712819, PMID 30534073; settings: cited from earlier work
[4] = Cannabinoid and metabolite concentrations in plasma, brain and spinal cord after single oral gavage (LC-MS/MS, non-compartmental PK); settings: mice
[5] = high dose, oral gavage (40 mg/kg THC+ extract, 20 mg/kg pure THC), plasma, brain and spinal cord

Row | SMILES | effect on mechanical withdrawal thresholds (von Frey) [1] | brain–plasma ratio [2] | time detectable in organs including the brain after application [3] | time of maximum CBD concentration ([4]; pure CBD compound, 1 and 20 mg/kg bodyweight, oral) [h] | absorption rate of CBD compared with THC, brain ([4]; pure compounds, oral, brain) [fold] | absorption rate of CBD compared with THC, spinal cord ([4]; pure compounds, oral, spinal cord) [fold] | time of peak concentration of OH-THC ([4]; high dose, oral (40 mg/kg THC+ extract, 20 mg/kg pure THC), brain tissue) [h] | time at which Δ9-THC was detectable in all tissues [4, 5] [h] | time of maximum Δ9-THC concentration [4, 5] [h] | Δ9-THC concentrations in all sample types ([4]; low dose, oral gavage (2 mg/kg THC+ extract, 1 mg/kg pure THC), plasma, brain and spinal cord)
1 | C=C(C)[C@@H]1CCC(C)=C[C@H]1c1c(O)cc(CCCCC)cc1O [CBD, cannabidiol] | alleviated mechanical hypersensitivity | 3.54 | more than 24 h | 2 | 2.8 | 1.7 | – | – | – | –
2 | CCCCCc1cc(O)c2c(c1)OC(C)(C)[C@@H]1CCC(C)=C[C@@H]21 [pure THC, Δ9-Tetrahydrocannabinol] | did not affect mechanical withdrawal thresholds | – | more than 24 h | – | – | – | 2 | 1 | 2 | negligible concentrations
